How the values were obtained:
[1] = tested on: hypertriglyceridemia; assay: Pharmacological test against hypertriglyceridemia (fructose-induced); assay type: in vivo; conditions: serum, male SD rats, oral 3 times, 300 mg/kg as free carboxylic acid, after 48 hours, 10% fructose
Procedure: (i) Pharmacological test against hypertriglyceridemia:
The groups were made to be hypertriglyceridemia by giving an aqueous 10% by weight solution of fructose for 2 days, those of control group being given tap water. The administration of six kinds of the present derivatives and of nicotinic acid was as follows:
Each specimen of the present pyrazole derivatives and nicotinic acid was dissolved or dispersed into an aqueous 1% solution of carboxymethylcellulose (CMC) at a predetermined concentration, and the thus prepared solution or dispersion was orally administered 3 times in the volume of 0.5 ml/100 g body weight, that is, first dose just after the commencement of the present test, second dose after 24 hours of the first administration and third dose after 18 hours of the second administration. The dose of each compound was set so that each animal intaked 300 mg/kg of each compound as free carboxylic acid. The rats of control group were given the aqueous 1% solution of CMC only three times at the same intervals as the test groups. All the groups were fed with the same diet during the test period.
After 48 hours of the commencement of the test, blood sample was collected from each animal by amputation of the carotid artery, and serum was separated from the blood sample and frozen to be kept until lipid analysis.
Serum triglyceride was determined by Acetylacetone Method, and the reduction percentage of lipid was calculated by the following formula: [formula] wherein the amount is the average of the group.
Analysis for serum cholesterol:
The content of serum cholesterol was determined by an enzymatic method using cholesteroloxidase, and the reduction percentage of cholesterol was calculated by the following formula: [formula]

[2] = tested on: hypercholesterolemia; assay: Pharmacological test against hypercholesterolemia (high cholesterol diet); assay type: in vivo; conditions: male SD rats, oral 200 mg/kg/day for 7 days; for Reduction Percentage, Cholesterol in beta-lipoprotein: heparin-calcium precipitation
Description: (ii) Pharmacological test against hypercholesterolemia:
Three groups of male SD rats each weighing ca. 150 g, each group consisting of five rats were used as the test animals and one group consisting of 10 rats was used as control. All animals were fed a high cholesterol diet consisted of 1% cholesterol, 0.2% sodium cholate, 5% olive oil and commercial diet up to total 100% for 7 days. The test compounds of the present invention and clofibrate, as a medicine for comparison, were respectively dissolved or dispersed in an aqueous 1% solution of CMC so that the volume of the solution or dispersion administered to each animal was 0.5 ml/100 g body weight/time, and the solution or dispersion was orally administered so that the amount of administration of each of the present pyrazole derivative or clofibrate was 200 mg/kg body weight/time. Actually, the administration was carried out once a day for 7 consecutive days. Water was taken ad lib. After 20 hours of fasting from the last administration, blood sample was taken by amputation of the carotid artery and the serum separated was frozen until the analysis of cholesterol shown as follows:
The content of serum cholesterol was determined by the above-mentioned method. The beta-lipoprotein-cholesterol was determined by "heparin-calcium precipitation method". The reduction percentages of cholesterol in serum and beta-lipoprotein were calculated in the same manner as above.

[3] = tested on: serum lipid; conditions: Kupiecki et al. 1968; cited from earlier work
[4] = tested on: blood sugar-level; conditions: Land et al. 1975; cited from earlier work
[5] = tested on: patients; conditions: administration to patients; cited from earlier work

Structure (SMILES) | Reduction Percentage, Cholesterol [1] [%] | Reduction Percentage, Triglyceride [1] [%] | Reduction Percentage, Cholesterol in serum [2] [%] | Reduction Percentage, Cholesterol in beta-lipoprotein [2] [%] | other results
CCCCCCCCCCCc1cc(C(=O)O)n[nH]1 [5-n-undecylpyrazole-3-carboxylic acid] | 40.0 | 69.1 | 22.8 | 20.1 | 
Cc1cc(C(=O)O)n[nH]1 [5-Methylpyrazol-3-carboxylic acid] |  |  |  |  | activity to reduce the level of serum lipid [3]: activity to reduce the level of serum lipid; clinical effect in treatment of hyperlipemia [4]: uncertainty of the derivative's clinical effect in treatment of hyperlipemia; side effect on blood sugar level [4]: causing the reduction of blood sugar-level
CCOC(=O)C(C)(C)Oc1ccc(Cl)cc1 [Clofibrate, reference compound] |  |  | -3.5 | -2.0 | side effects [5]: causes the diseases in the bile duct system and is in danger of causing cancer
CCCCCCCc1cc(C(=O)OCC)n[nH]1 [Ethyl 5-n-heptylpyrazole-3-carboxylate, ethyl 5-n-heptylpyrazole-3-carboxylate] | 2.1 | 41.1 |  |  | 
CCCCCCCc1cc(C(=O)O)n[nH]1 [5-n-heptylpyrazole-3-carboxylic acid] | 12.5 | 40.6 |  |  | 
O=C(O)c1cccnc1 [nicotinic acid, reference compound] | 16.4 | 24.1 |  |  | side effects [5]: causing flushing or eruptions on the face and skin
CCCCCCCCCCCc1cc(C(=O)OCC)n[nH]1 [Ethyl 5-n-undecylpyrazole-3-carboxylate, ethyl 5-n-undecylpyrazole-3-carboxylate] | 53.1 | 83.7 |  |  | 
CCCCCCCCCc1cc(C(=O)O)n[nH]1 [5-n-nonylpyrazole-3-carboxylic acid] | 12.2 | 66.5 | 11.1 | 0.6 | 
CCCCCCCCCc1cc(C(=O)OCC)n[nH]1 [Ethyl 5-n-nonylpyrazole-3-carboxylate, ethyl 5-n-nonylpyrazole-3-carboxylate] | 29.5 | 63.1 |  |  | 
